Laboratory results published in paper PMC8867174, “S-Nitrosation of Arabidopsis thaliana Protein Tyrosine Phosphatase 1 Prevents Its Irreversible Oxidation by Hydrogen Peroxide” (Frontiers in Plant Science, 2022).

How the values were obtained:
[1] = target: T1, His-AtPTP1 (Arabidopsis thaliana Protein Tyrosine Phosphatase 1) (Arabidopsis thaliana, UniProt O82656); assay: pNPP hydrolysis after overnight pre-treatment, […] nm; biotin switch LC-MS/MS; assay type: biochemical; conditions: covalent (S-nitrosation of catalytic C265, reversible by DTT); 100 or 500 uM GSNO overnight 25 C, removed by gel filtration; assay 1 mM pNPP, pH 6.3, 25 C, no DTT
T1 construct: gene PTP1
T1 sequence (O82656 1-340): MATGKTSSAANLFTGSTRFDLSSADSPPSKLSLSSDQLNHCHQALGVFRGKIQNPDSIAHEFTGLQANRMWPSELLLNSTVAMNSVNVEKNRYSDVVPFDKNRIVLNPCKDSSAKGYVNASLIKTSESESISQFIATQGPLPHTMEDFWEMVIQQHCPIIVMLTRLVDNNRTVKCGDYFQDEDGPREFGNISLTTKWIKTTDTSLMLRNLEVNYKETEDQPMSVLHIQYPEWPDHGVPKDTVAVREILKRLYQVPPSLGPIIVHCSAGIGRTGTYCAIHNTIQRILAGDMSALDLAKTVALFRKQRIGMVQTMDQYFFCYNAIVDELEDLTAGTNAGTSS

[2] = target: T1, His-AtPTP1 (Arabidopsis thaliana Protein Tyrosine Phosphatase 1); assay: pNPP hydrolysis after overnight pre-treatment, […] nm; assay type: biochemical; conditions: covalent (NO donor, S-nitrosation); 250 uM to 1 mM SNAP overnight 25 C, removed by gel filtration; assay 1 mM pNPP, pH 6.3, 25 C

N[C@@H](CCC(=O)N[C@@H](CSN=O)C(=O)NCC(=O)O)C(=O)O [S-nitrosoglutathione]
relative activity [1]: GSNO inhibited the enzymatic activity of His-AtPTP1

CC(=O)NC(C(=O)O)C(C)(C)SN=O (centres unmarked) [S-nitroso-N-acetylpenicillamine]
relative activity [2]: Treatment of His-AtPTP1 with SNAP also led to a significant decrease in its activity
